Laboratory results taken from publication PMC5989765, “The safety, tolerability, and pharmacokinetic profile of GSK2838232, a novel 2nd generation HIV maturation inhibitor, as assessed in healthy subjects” (Pharmacology Research & Perspectives, 2018).
Entries after “also recorded” stand apart in the source; their conditions may differ. Where two headings read alike, the source gives them in different places.

What was measured:
Type in all cases: in vivo, human
[1] = Pharmacokinetics in healthy subjects, statements across the Phase I studies; conditions: for half-life: human, plasma, oral
Procedure: (§1) Blood samples were taken via an indwelling cannula or by direct venipuncture, collected into a di‐potassium ethylenediaminetetraacetic acid (K2 EDTA) tube, and placed on wet ice. Samples were centrifuged at approximately 1500g for 10 minutes at approximately 4°C. Exactly 500 μL of the resulting plasma was transferred into labeled 1.4 mL Matrix TrakMate Tubes containing exactly 500 μL of 50 mmol/L citrate buffer, pH 4.0, and mixed well. When 500 μL of plasma was not able to be transferred, the ratio of plasma to citrate buffer was kept at 1:1. Buffered plasma samples were kept on ice and frozen at −70°C within 1 hour of collection. Plasma samples were analyzed for GSK2838232 using a validated analytical method based on protein precipitation, followed by high performance liquid chromatography with tandem mass spectrometry (HPLC/MS/MS) analysis.
(§2) Extracts were analyzed using HPLC (Shimadzu, Nexera, 30 series) and tandem mass spectrometry detection (HPLC‐MS/MS). The mass spectrometer used was an API‐5500 using IonSpray interface (500 V) in positive mode monitoring. The mass transitions were 809.5 to 255.1 and 816.5 to 262.1 for GSK2838232 and [2H7] GSK2838232 (the isotopically labeled internal standard), respectively. The chromatographic conditions utilized a Waters Acquity UPLC BEH C18 column (50 × 2.1 mm, 1.7 μm) with mobile phases consisting of 1 mmol/L ammonium formate:formic acid (100:0.005) (mobile phase A) and acetonitrile:formic acid (100:0.1) (mobile phase B) at a flow rate of 0.6 mL/min, with pump B at 63% held for 2 minutes. The assay was validated to have precision (%RSD) of 0.7%‐6.5% (within‐run) and 1.0%‐5.9% RSD (between‐run) and with accuracy (%bias) of 0.0%‐1.6%. […] The lower limit of quantification (LLQ) was 0.5 ng/mL, using a 50 μL aliquot of K2EDTA acidified plasma. The higher limit of quantification (HLQ) was 500 ng/mL.
(§3) The PK parameters were calculated by standard noncompartmental analysis based on actual sampling times using WinNonlin Version 6.3 or higher. Estimation of AUC used the linear up/log down trapezoidal rule.

[2] = Safety and tolerability in healthy subjects across the four Phase I studies
Procedure: Each one of the four studies described were conducted and completed at a single center in the United States (Parexel International, Baltimore, MD) per the ethical principles of “good clinical practice” (GCP) and the Declaration of Helsinki after obtaining a written informed consent from each subject. The protocols and amendments were approved by Aspire Investigational Review Board (Santee, California, USA).
Other screening assessments included 24‐hour Holter monitoring and baseline echocardiograms.
Nonclinical evaluation in short duration toxicology studies initially gave rise to potential cardiovascular signals which were minimal, appeared sporadically, and were not reproduced in longer term studies. Consequently, there was intensive and extensive cardiovascular monitoring at baseline and post‐dosing, including continuous Holter monitoring and regular cardiac troponin laboratory assessments in these early Phase I studies along with a high degree of vigilance for any findings and/or reported AEs of potential cardiovascular origin.

[3] = Study HMI116787: single ascending dose, food effect and RTV boosting, SDD PiB, healthy subjects; conditions: for Cmax / Tmax / concentration at 24 h / AUC / half-life: human, plasma, oral; for Cmax / Tmax / concentration at 24 h / AUC / half-life / CL/F: fasted; for Cmax / AUC / half-life / CL/F: geometric mean (95% CI); for Tmax / concentration at 24 h: median (range); for concentration at 24 h: read-out: C24; for AUC: read-out: AUC(0‐∞); for half-life: read-out: t½ (converted)
Procedure: This study was a first‐in‐human, double‐blind, randomized, placebo‐controlled, single dose escalation study of GSK2838232 in healthy subjects conducted in two sequential cohorts with four dosing visits in each cohort. At each visit in each cohort, 6 out of the 8 subjects were randomized to receive the active dose, and 2 out of the 8 subjects were randomized to placebo. Cohort 1 tested escalating doses of 5, 10, and 20 mg GSK2838232 as a Spray Dried Dispersion (SDD) delivered as a powder‐in‐bottle (PiB) suspension; Cohort 2 tested the same formulation at doses of 50 and 100 mg, the effect of a high‐fat breakfast on a 50 mg dose, and the impact of steady‐state dosing of 100 mg once‐daily (QD) RTV on the PK of a single 10 mg dose of GSK2838232 (administered on Day 10 of the 12 days of RTV dosing). All doses were administered in a fasted state, except in the food effect portion of the study.
as §1, §2, §3

[4] = 50 mg Fed (high, 60% fat meal) versus 50 mg fasted, SDD PiB formulation, Study HMI116787
[5] = RTV for 10 days prior to 10 mg SDD, Study 116787
[6] = single 5 mg SDD PiB, without ritonavir, Study HMI116787
[7] = single 10 mg SDD PiB, with ritonavir 100 mg QD (Day 10 of 12), Study HMI116787
[8] = single 10 mg SDD PiB, without ritonavir, Study HMI116787
[9] = single 20 mg SDD PiB, without ritonavir, Study HMI116787
[10] = single 50 mg SDD PiB, without ritonavir, Study HMI116787
[11] = single 100 mg SDD PiB, without ritonavir, Study HMI116787

CC(C)C1=C2[C@H]3CC[C@@H]4[C@@]5(C)CC[C@H](OC(=O)CC(C)(C)C(=O)O)C(C)(C)[C@@H]5CC[C@@]4(C)[C@]3(C)CC[C@@]2([C@@H](O)CN(CCN(C)C)Cc2ccc(Cl)cc2)CC1=O [GSK2838232]
positive food effect ([1]; capsule formulation discussion): about 1.5 fold
metabolite detected in human plasma ([1]; co‐administration with RTV): O‐glucuronide
absorption with food ([1]; fed state (moderate or high fat meal)): delayed and more variable
increase in AUC with food ([1]; fed versus fasted): ~ 60%
increase in C max with food ([1]; fed versus fasted): ~ 60%
half-life ([1]; nonboosted): ~17 h
half-life ([1]; with RTV): ~34 h
dose proportionality of AUC and C max ([1]; single doses without RTV, 5‐100 mg (SDD, fasted)): proportional PK; also recorded: proportional to dose; also recorded: proportional pharmacokinetics
cardiovascular toxicities / events related to study drug ([2]; healthy subjects): no cardiovascular toxicities were deemed related to study drug administration; also recorded: none were considered definitively related to GSK2838232
adverse events ([2]; healthy subjects, all dose regimens, up to 250 mg): few mild adverse events (AEs) with similar frequencies to placebo; also recorded: Few adverse events (AEs) were reported across all dose regimens
drug‐related AEs ([2]; healthy subjects, four studies): no clearly identified drug‐related AEs
changes in hematology or clinical chemistry laboratory values, including liver function tests ([2]; healthy subjects, exception one subject with gallstones (not treatment‐related)): no clinically significant changes
AEs assessed with a reasonable likelihood of being drug‐related ([2]; infrequently reported): headache and dizziness
safety and tolerability ([2]; single doses up to 250 mg with 100 mg RTV, repeat doses up to 200 mg with 100 mg RTV for 11 days): good safety and tolerability profile
Geometric least square mean ratio [90% CI], AUC(0‐∞) [3, 4]: 1.61 (1.266, 2.053)
Geometric least square mean ratio [90% CI], C max [3, 4]: 1.60 (0.995, 2.566)
change in t½ with RTV [3, 5]: approximately doubled
increase in 24‐h concentration (C24) with RTV [3, 5]: ~6.4 fold
increase in AUC(0‐t) with RTV [3, 5]: approximately 10 fold
increase in C max with RTV [3, 5]: ~3 fold
bioavailability after meal relative to the fasted state ([3]; SDD PiB formulation, high‐fat (60%) meal, Study HMI116787): approximately 1.6 fold
Cmax [3, 6]: 1.52 ng/mL
Tmax [3, 6]: 2.24 h
concentration at 24 h [3, 6]: 0 ng/mL
Cmax [3, 7]: 9.1 ng/mL
AUC [3, 7]: 0.389 µg·h/mL
half-life [3, 7]: 33.7 h
Tmax [3, 7]: 4 h
concentration at 24 h [3, 7]: 4.64 ng/mL
Cmax [3, 8]: 3.49 ng/mL
Tmax [3, 8]: 1.76 h
concentration at 24 h [3, 8]: 0.63 ng/mL
Cmax [3, 9]: 8.09 ng/mL
AUC [3, 9]: 0.104 µg·h/mL
half-life [3, 9]: 14.1 h
Tmax [3, 9]: 1.75 h
concentration at 24 h [3, 9]: 1.54 ng/mL
Cmax [3, 10]: 13.1 ng/mL
AUC [3, 10]: 0.195 µg·h/mL
half-life [3, 10]: 17.4 h
Tmax [3, 10]: 2.02 h
concentration at 24 h [3, 10]: 3.11 ng/mL
Cmax [3, 11]: 23.7 ng/mL
AUC [3, 11]: 0.385 µg·h/mL
half-life [3, 11]: 18.8 h
Tmax [3, 11]: 2.75 h
concentration at 24 h [3, 11]: 5.93 ng/mL
CL/F [3, 7]: 25.7 (18.8, 35.1) L/h
CL/F [3, 9]: 193 (147, 254) L/h
CL/F [3, 10]: 256 (203, 324) L/h
CL/F [3, 11]: 260 (202, 335) L/h
increase in C max by RTV ([3]; single dose after steady‐state predosing with RTV 100 mg QD): 3 fold
